The values below come from patent US20230024096A1, “BIFUNCTIONAL COMPOUNDS FOR THE TREATMENT OF CANCER” (Hoffmann-La Roche Inc., priority 2019, published 2023).

The experiment deals with T1, SMARCA2 (Homo sapiens, UniProt P51531).
T1 construct: endogenous in cells; host or cells: HT1080 (CRISPR HiBiT knock-in clone, generated in house)
Briefly: SMARCA2 HiBiT degradation assay (cellular). Format: cell-based. As to conditions: table head names A549; for DC50: 6 h incubation, HiBiT-tagged SMARCA2, luminescence read-out, read-out: HiBit A549 SMARCA2 IP (nM) 6 h; for Emax: A549, 6 h incubation, Emax = amount of residual protein remaining in the cell following compound treatment.

T1 sequence (P51531 whole entry): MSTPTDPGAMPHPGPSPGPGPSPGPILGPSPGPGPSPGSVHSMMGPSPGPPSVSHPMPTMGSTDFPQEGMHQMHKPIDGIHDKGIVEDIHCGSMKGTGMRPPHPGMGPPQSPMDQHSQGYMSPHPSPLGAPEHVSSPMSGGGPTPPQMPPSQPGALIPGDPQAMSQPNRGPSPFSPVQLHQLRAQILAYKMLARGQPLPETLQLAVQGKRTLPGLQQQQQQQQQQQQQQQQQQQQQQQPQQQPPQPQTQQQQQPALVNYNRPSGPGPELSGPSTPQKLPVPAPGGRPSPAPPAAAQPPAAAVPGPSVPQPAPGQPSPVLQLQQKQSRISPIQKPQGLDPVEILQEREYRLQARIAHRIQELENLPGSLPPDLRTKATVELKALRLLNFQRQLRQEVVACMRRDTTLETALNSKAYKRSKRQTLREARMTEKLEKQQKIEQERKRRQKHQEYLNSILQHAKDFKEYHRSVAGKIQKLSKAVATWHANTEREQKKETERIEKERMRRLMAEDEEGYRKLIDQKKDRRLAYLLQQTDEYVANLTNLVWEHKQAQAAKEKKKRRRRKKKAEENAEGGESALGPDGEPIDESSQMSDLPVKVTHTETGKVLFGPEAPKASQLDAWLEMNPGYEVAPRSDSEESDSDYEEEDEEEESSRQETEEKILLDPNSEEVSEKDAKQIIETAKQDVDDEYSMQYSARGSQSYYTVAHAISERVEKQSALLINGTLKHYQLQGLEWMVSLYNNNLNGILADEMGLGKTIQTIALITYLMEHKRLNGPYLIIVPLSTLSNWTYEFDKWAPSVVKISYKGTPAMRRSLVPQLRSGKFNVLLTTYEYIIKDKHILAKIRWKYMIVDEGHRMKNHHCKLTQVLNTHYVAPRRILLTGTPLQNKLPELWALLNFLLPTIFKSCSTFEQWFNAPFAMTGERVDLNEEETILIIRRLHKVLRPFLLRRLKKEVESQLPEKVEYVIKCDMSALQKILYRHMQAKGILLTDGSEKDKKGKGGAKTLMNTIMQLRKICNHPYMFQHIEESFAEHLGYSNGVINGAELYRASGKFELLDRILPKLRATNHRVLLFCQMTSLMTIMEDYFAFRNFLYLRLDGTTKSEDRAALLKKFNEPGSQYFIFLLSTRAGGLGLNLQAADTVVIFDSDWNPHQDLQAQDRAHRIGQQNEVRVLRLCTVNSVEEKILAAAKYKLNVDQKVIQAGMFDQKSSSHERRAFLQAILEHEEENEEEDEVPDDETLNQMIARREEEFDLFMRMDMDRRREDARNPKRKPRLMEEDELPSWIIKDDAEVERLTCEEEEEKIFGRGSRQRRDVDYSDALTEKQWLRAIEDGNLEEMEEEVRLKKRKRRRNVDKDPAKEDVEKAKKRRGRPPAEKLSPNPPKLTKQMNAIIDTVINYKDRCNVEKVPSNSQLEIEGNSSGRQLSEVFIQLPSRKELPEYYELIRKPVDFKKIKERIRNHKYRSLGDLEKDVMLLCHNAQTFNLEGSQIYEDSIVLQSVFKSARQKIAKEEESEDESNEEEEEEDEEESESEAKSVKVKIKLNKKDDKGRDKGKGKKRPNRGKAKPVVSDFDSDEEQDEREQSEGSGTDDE

Regarding `Nc1nnc(-c2ccccc2O)cc1OC1CCCN(c2ccc(N3CCN(C(=O)CCCCCCCCN4CCC(Oc5ccc6c(c5)C(=O)N(C5CCC(=O)NC5=O)C6=O)CC4)CC3)cc2)C1` (stereo not shown) [Example 44, 5-[[1-[9-[4-[4-[3-[3-amino-6-(2-hydroxyphenyl)pyridazin-4-yl]oxy-1-piperidyl]phenyl]piperazin-1-yl]-9-oxo-nonyl]-4-piperidyl]oxy]-2-(2,6-dioxo-3-piperidyl)isoindoline-1,3-dione], the DC50 was 133 nM and the Emax turned out to be 61%.
Compound `Nc1nnc(-c2ccccc2O)cc1N1CCC(C(=O)N2CCC(C(=O)N3CCN(c4ccc(C5CCC(=O)NC5=O)cc4)CC3)CC2)(c2ccccc2)CC1` (stereo not shown) [Example 176, 3-(4-(4-(1-(1-(3-amino-6-(2-hydroxyphenyl)pyridazin-4-yl)-4-phenylpiperidine-4-carbonyl)piperidine-4-carbonyl)piperazin-1-yl)phenyl)piperidine-2,6-dione] showed an Emax of 31%.
Take `CC(Oc1cccc2c1C(=O)N(C1CCC(=O)NC1=O)C2=O)c1cn(C2CN(C(=O)CCCCN3CCN(c4ccc(N5CCC[C@H](Oc6cc(-c7ccccc7O)nnc6N)C5)cc4)CC3)C2)nn1` (mixture of isomers) [Example 199, 2-(2,6-dioxo-3-piperidyl)-4-[1-[1-[1-[5-[4-[4-[rac-(3S)-3-[3-amino-6-(2-hydroxyphenyl)pyridazin-4-yl]oxy-1-piperidyl]phenyl]piperazin-1-yl]pentanoyl]azetidin-3-yl]triazol-4-yl]ethoxy]isoindoline-1,3-dione]: the DC50 came out at 107 nM and the maximal effect (Emax) came out at 62%.
Regarding `Nc1nnc(-c2ccccc2O)cc1N1CC2CCC(C1)N2c1cccc(OCCN2CCN(C(=O)C3CN(c4ccc5c(c4)C(=O)N(C4CCC(=O)NC4=O)C5=O)C3)CC2)c1` (racemic) [Example 60, rac-5-[3-[4-[2-[3-[3-[3-amino-6-(2-hydroxyphenyl)pyridazin-4-yl]-3,8-diazabicyclo[3.2.1]octan-8-yl]phenoxy]ethyl]piperazine-1-carbonyl]azetidin-1-yl]-2-(2,6-dioxo-3-piperidyl)isoindoline-1,3-dione], the DC50 came to 18 nM and the Emax stood at 32%.
With `Nc1nnc(-c2ccccc2O)cc1OC1CCCN(c2ccc(N3CCN(C(=O)CCCCCCCCN4CCN(c5ccc6c(c5)C(=O)N(C5CCC(=O)NC5=O)C6=O)CC4)CC3)cc2)C1` (stereo not shown) [Example 26, 5-[4-[9-[4-[4-[3-[3-amino-6-(2-hydroxyphenyl)pyridazin-4-yl]oxy-1-piperidyl]phenyl]piperazin-1-yl]-9-oxo-nonyl]piperazin-1-yl]-2-(2,6-dioxo-3-piperidyl)isoindoline-1,3-dione], the DC50 came to 164 nM and the Emax worked out at 63%.
On the same counts, the results for `CC(Oc1cccc2c1C(=O)N(C1CCC(=O)NC1=O)C2=O)c1cn(CCCCCCCCCN2CCN(c3ccc(N4CCC[C@H](Oc5cc(-c6ccccc6O)nnc5N)C4)cc3)CC2)nn1` (mixture of isomers) [Example 126, 2-(2,6-dioxo-3-piperidyl)-4-[1-[1-[9-[4-[4-[rac-(3S)-3-[3-amino-6-(2-hydroxyphenyl)pyridazin-4-yl]oxy-1-piperidyl]phenyl]piperazin-1-yl]nonyl]triazol-4-yl]ethoxy]isoindoline-1,3-dione] are 73 nM and 26%.
In the same order, the values of `Nc1nnc(-c2ccccc2O)cc1N1CC2CCC(C1)N2c1cccc(OCCN2CCN(C(=O)CCC3CCN(c4cccc5c4C(=O)N(C4CCC(=O)NC4=O)C5=O)CC3)CC2)c1` (racemic) [Example 16, rac-4-[4-[3-[4-[2-[3-[3-[3-amino-6-(2-hydroxyphenyl)pyridazin-4-yl]-3,8-diazabicyclo[3.2.1]octan-8-yl]phenoxy]ethyl]piperazin-1-yl]-3-oxo-propyl]-1-piperidyl]-2-(2,6-dioxo-3-piperidyl)isoindoline-1,3-dione] are 46 nM and 50%.
For `Nc1nnc(-c2ccccc2O)cc1N1CCC(C(=O)N2CCC3(CC2)CN(C(=O)COc2ccc4c(c2)C(=O)N(C2CCC(=O)NC2=O)C4=O)CCO3)(c2ccccc2)CC1` (stereo not shown) [Example 166, 5-(2-(9-(1-(3-amino-6-(2-hydroxyphenyl)pyridazin-4-yl)-4-phenylpiperidine-4-carbonyl)-1-oxa-4,9-diazaspiro[5.5]undecan-4-yl)-2-oxoethoxy)-2-(2,6-dioxopiperidin-3-yl)isoindoline-1,3-dione], the DC50 was determined as 607 nM and the Emax amounted to 53%.
On the same counts, the results for `Nc1nnc(-c2ccccc2O)cc1N1CCC(C(=O)N2CC3(CCN(C(=O)COc4ccc5c(c4)C(=O)N(C4CCC(=O)NC4=O)C5=O)CC3)C2)(c2ccccc2)CC1` (stereo not shown) [Example 162, 5-(2-(2-(1-(3-amino-6-(2-hydroxyphenyl)pyridazin-4-yl)-4-phenylpiperidine-4-carbonyl)-2,7-diazaspiro[3.5]nonan-7-yl)-2-oxoethoxy)-2-(2,6-dioxopiperidin-3-yl)isoindoline-1,3-dione] are 299 nM and 57%.
On the same counts, the results for `Nc1nnc(-c2ccccc2O)cc1N1CCC(OCC(=O)NC2CCN(C(=O)C3CCN(c4ccc5c(c4)C(=O)N(C4CCC(=O)NC4=O)C5=O)CC3)CC2)(c2ccccc2)CC1` (stereo not shown) [Example 196, 2-[[1-[3-amino-6-(2-hydroxyphenyl)pyridazin-4-yl]-4-phenyl-4-piperidyl]oxy]-N-[1-[1-[2-(2,6-dioxo-3-piperidyl)-1,3-dioxo-isoindolin-5-yl]piperidine-4-carbonyl]-4-piperidyl]acetamide] are 51 nM and 65%.
On the same counts, the results for `Nc1nnc(-c2ccccc2O)cc1N1CC2CCC(C1)N2c1cccc(OCCN2CCN(C(=O)CNC(=O)C3CCN(c4cccc5c4C(=O)N(C4CCC(=O)NC4=O)C5=O)CC3)CC2)c1` (racemic) [Example 18, rac-N-[2-[4-[2-[3-[3-[3-amino-6-(2-hydroxyphenyl)pyridazin-4-yl]-3,8-diazabicyclo[3.2.1]octan-8-yl]phenoxy]ethyl]piperazin-1-yl]-2-oxo-ethyl]-1-[2-(2,6-dioxo-3-piperidyl)-1,3-dioxo-isoindolin-4-yl]piperidine-4-carboxamide] are 134 nM and 62%.
Consider `Nc1nnc(-c2ccccc2O)cc1OC1CCCN(c2ccc(N3CCN(C(=O)CCCCCCCCCCn4cc(CNc5cccc6c5C(=O)N(C5CCC(=O)NC5=O)C6=O)nn4)CC3)cc2)C1` (stereo not shown) [Example 29, 4-[[1-[11-[4-[4-[3-[3-amino-6-(2-hydroxyphenyl)pyridazin-4-yl]oxy-1-piperidyl]phenyl]piperazin-1-yl]-11-oxo-undecyl]triazol-4-yl]methylamino]-2-(2,6-dioxo-3-piperidyl)isoindoline-1,3-dione], for which the DC50 came out at 158 nM and the Emax is 50%.
For the compound `Nc1nnc(-c2ccccc2O)cc1N1CCC(C(=O)N2CCN(C(=O)C3CCN(c4ccc5c(c4)C(=O)N(C4CCC(=O)NC4=O)C5=O)CC3)CC2)(c2ccccc2)CC1` (stereo not shown) [Example 120, 5-(4-(4-(1-(3-amino-6-(2-hydroxyphenyl)pyridazin-4-yl)-4-phenylpiperidine-4-carbonyl)piperazine-1-carbonyl)piperidin-1-yl)-2-(2,6-dioxopiperidin-3-yl)isoindoline-1,3-dione], the DC50 was determined as 31 nM and the Emax was 28%.
